US11066369B2, “N-(pyridin-2-yl)pyridine-sulfonamide derivatives and their use in the treatment of disease” (Novartis AG, priority 2016, dated 2021)
Where a name gives a salt, the structure may show the parent alone.

How the values were obtained:
[1] = biological target: T1, horseradish peroxidase (HRP) tagged delF508-CFTR (Homo sapiens, UniProt P13569, DEL508-508); assay: Measurement of delF508-CFTR-HRP surface expression in CFBE41o- cells; type: cell-based; conditions: delF508-CFTR-HRP surface expression, CFBE41o- cells; for Emax: read-out: DelF508-CFTR-HRP Amax %; for EC50: read-out: DelF508-CFTR-HRP EC50;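 for DelF508-CFTR-HRP Amax %: percent efficacy relative to reference corrector lumacaftor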
T1 construct: expressed in transfected cells
Summary of the method: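 CFBE41o- bronchial epithelial cells stably expressing delF508-CFTR with HRP in the fourth extracellular loop; expression induced 48h with 500 ng/mL doxycycline, then compounds added (top 10 μM, 10-point 3-fold series, ≤0.5% DMSO) for 24h at 37° C. Surface HRP measured by luminescence with cell-impermeant substrate; EC50 from logistic fit of triplicates, plate-normalized to lowest concentration; efficacy also relative to a reference corrector.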

[2] = biological target: T2, delF508-CFTR (Homo sapiens, UniProt P13569, DEL508-508); assay: Measurement of delF508-CFTR functional activity in primary human bronchial epithelial cells (HBECs) using Multi-Transepithelial Clamp Circuit (MTECC-24) assay; type: cell-based; conditions: primary CF HBECs; for MTECC24 CFHBEC- Amax %: test compound added 24h before assay plus potentiator, relative to reference combination (2 μM corrector + 0.5 μM potentiator); for EC50: test compound added 24h before assay, in the presence of potentiator, mean of at least two replicates, read-out: MTECC24 CFHBEC- EC50
T2 construct: functional activity of the CFTR channel (Chloride ion transport) in patient derived primary human bronchial epithelial cells; host or cells: patient-derived primary human bronchial epithelial cells (delF508-CFTR)
Summary of the method: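 Patient-derived primary delF508-CFTR HBECs, differentiated at air-liquid interface ~2 weeks, treated basolaterally with compound for 24 h, then apical and basolateral compound in HEPES pH 7.4 assay medium. Equivalent short-circuit current (Ieq) recorded on MTECC-24 with sequential amiloride, forskolin, potentiator and INH-172; normalized to 0.1% DMSO, EC50 from curve fit.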

T1 sequence (P13569 with tags, fused parts or gaps DEL508-508): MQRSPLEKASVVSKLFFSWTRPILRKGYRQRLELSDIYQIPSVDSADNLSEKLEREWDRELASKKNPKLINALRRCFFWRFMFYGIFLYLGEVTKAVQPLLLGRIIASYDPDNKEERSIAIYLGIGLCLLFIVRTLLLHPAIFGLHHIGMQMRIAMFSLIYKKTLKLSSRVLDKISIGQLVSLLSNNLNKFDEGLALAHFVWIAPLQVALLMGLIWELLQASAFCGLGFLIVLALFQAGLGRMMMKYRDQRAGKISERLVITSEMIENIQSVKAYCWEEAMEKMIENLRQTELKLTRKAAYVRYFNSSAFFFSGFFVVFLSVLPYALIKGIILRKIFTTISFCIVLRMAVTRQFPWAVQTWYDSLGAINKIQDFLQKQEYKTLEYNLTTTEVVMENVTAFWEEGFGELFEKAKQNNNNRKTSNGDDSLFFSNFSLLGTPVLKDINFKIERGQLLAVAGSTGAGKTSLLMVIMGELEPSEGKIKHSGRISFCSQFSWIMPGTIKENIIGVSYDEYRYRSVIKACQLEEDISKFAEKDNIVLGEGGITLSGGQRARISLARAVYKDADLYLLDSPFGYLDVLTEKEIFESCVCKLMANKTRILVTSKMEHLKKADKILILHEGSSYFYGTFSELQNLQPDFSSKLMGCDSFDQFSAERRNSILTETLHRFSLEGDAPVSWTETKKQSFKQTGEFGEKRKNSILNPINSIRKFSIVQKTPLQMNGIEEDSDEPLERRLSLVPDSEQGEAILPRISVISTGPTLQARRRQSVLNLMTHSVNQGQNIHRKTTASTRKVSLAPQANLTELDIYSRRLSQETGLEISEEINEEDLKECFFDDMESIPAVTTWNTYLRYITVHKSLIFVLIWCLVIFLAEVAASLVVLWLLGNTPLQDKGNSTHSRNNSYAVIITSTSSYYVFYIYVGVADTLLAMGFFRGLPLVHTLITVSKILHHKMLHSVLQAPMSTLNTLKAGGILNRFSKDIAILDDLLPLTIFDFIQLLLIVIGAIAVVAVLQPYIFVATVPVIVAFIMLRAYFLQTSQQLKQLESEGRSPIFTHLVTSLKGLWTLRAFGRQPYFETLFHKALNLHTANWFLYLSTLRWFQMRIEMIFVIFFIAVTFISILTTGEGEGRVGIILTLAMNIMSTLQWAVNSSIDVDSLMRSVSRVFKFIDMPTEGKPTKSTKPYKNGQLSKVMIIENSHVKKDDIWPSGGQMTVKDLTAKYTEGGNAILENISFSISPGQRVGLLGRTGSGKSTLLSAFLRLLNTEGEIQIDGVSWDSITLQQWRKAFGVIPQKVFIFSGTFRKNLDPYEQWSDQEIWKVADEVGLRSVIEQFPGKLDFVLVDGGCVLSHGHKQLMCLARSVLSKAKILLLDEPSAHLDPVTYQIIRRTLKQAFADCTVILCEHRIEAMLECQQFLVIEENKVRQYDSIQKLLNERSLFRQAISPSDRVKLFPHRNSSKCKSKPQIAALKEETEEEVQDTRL
T2 sequence (P13569 with tags, fused parts or gaps DEL508-508): as above

Row | Emax [1] [%] | EC50 [1] [nM] | MTECC24 CFHBEC- Amax % [2] [%] | EC50 [2] [nM] | SMILES
1 | 530 | 3270 | 63.4 | 281 | Cc1ccc(F)cc1-c1nc(NS(=O)(=O)c2cccc(N3CCN[C@H](CO)C3)n2)ccc1C(F)(F)F [Example 175, (S)—N-(6-(5-fluoro-2-methylphenyl)-5-(trifluoromethyl)pyridin-2-yl)-6-(3-(hydroxymethyl)piperazin-1-yl)pyridine-2-sulfonamide Hydrochloride]
2 | 806 | 2310 | 66.4 | 10.5 | Cc1ccc(F)cc1-c1nc(NS(=O)(=O)c2cccc(N[C@@H]3CCOC[C@@H]3O)n2)ccc1Cl [Example 272, N-[5-chloro-6-(5-fluoro-2-methylphenyl)pyridin-2-yl]-6-{[(3R,4R)-3-hydroxyoxan-4-yl]amino}pyridine-2-sulfonamide]
3 | 198 | 1350 | 63.0 | 21.8 | Cc1ccc(F)cc1-c1nc(NS(=O)(=O)c2cccc(N3CCC(C)(C(=O)O)CC3)n2)ccc1Cl [Example 257, 1-(6-{[5-chloro-6-(5-fluoro-2-methylphenyl)pyridin-2-yl]sulfamoyl}pyridin-2-yl)-4-methylpiperidine-4-carboxylic Acid]
4 | 450 | 2360 | 50.5 | 12.1 | Cc1ccc(F)cc1-c1nc(NS(=O)(=O)c2cccc(O[C@@H]3COC[C@@H]3O)n2)ccc1Cl [Example 289, N-(5-chloro-6-(5-fluoro-2-methylphenyl)pyridin-2-yl)-6-(((3R,4S)-4-hydroxytetrahydrofuran-3-yl)oxy)pyridine-2-sulfonamide]
5 | 721 | 2400 | 83.5 | 12.9 | COc1ccc(Cl)c(-c2nc(NS(=O)(=O)c3cccc(N4CC(O)C4)n3)ccc2C(F)(F)F)c1 [Example 226, N-(6-(2-chloro-5-methoxyphenyl)-5-(trifluoromethyl)pyridin-2-yl)-6-(3-hydroxyazetidin-1-yl)pyridine-2-sulfonamide]
6 | 592 | 1290 | 66.8 | 1.8 | Cc1cccc(C)c1-c1cc(C(F)(F)F)cc(NS(=O)(=O)c2cccc(N3CC(O)C3)n2)n1 [Example 205, N-(6-(2,6-dimethylphenyl)-4-(trifluoromethyl)pyridin-2-yl)-6-(3-hydroxyazetidin-1-yl)pyridine-2-sulfonamide]
7 | 446 | 1710 | 82.1 | 4.8 | Cc1c(F)cccc1-c1nc(NS(=O)(=O)c2cccc(N3CC(O)C3)n2)ccc1C(F)(F)F [Example 216, N-(6-(3-fluoro-2-methylphenyl)-5-(trifluoromethyl)pyridin-2-yl)-6-(3-hydroxyazetidin-1-yl)pyridine-2-sulfonamide]
8 | 368 | 2340 | 88.8 | 13.9 | Nc1cccc(S(=O)(=O)Nc2ccc(C(F)(F)F)c(-c3ccc(F)cc3Cl)n2)n1 [Example 41, 6-amino-N-(6-(2-chloro-4-fluorophenyl)-5-(trifluoromethyl)pyridin-2-yl)pyridine-2-sulfonamide]
9 | 700 | 2220 | 87.1 | 38.3 | Cc1cccc(C)c1-c1nc(NS(=O)(=O)c2cccc(N3CCn4cc(C(F)(F)F)nc4C3)n2)ccc1Cl [Example 199, N-(5-chloro-6-(2,6-dimethylphenyl)pyridin-2-yl)-6-(2-(trifluoromethyl)-5,6-dihydroimidazo[1,2-a]pyrazin-7(8H)-yl)pyridine-2-sulfonamide]
10 | 172 | 4050 | 55.0 | 495 | Cc1ccccc1-c1nc(NS(=O)(=O)c2cccc(NC3CCNCC3)n2)ccc1C(F)(F)F [Example 112, 6-(piperidin-4-ylamino)-N-(6-(o-tolyl)-5-(trifluoromethyl)pyridin-2-yl)pyridine-2-sulfonamide Hydrochloride]
11 | 877 | 1460 | 105.5 | 4.6 | Cc1ccccc1-c1nc(NS(=O)(=O)c2cccc(N3CCN(CC(F)F)CC3)n2)ccc1C(F)(F)F [Example 185, 6-(4-(2,2-difluoroethyl)piperazin-1-yl)-N-(6-(o-tolyl)-5-(trifluoromethyl)pyridin-2-yl)pyridine-2-sulfonamide]
12 | 215 | 1940 | 67.5 | 47.5 | O=S(=O)(Nc1ccc(Cl)c(-c2ccccc2C(F)(F)F)n1)c1cccc(N[C@H]2COC[C@@H]2O)n1 [Example 125, N-(5-chloro-6-(2-(trifluoromethyl)phenyl)pyridin-2-yl)-6-(((3S,4R)-4-hydroxytetrahydrofuran-3-yl)amino)pyridine-2-sulfonamide]
13 |  | 2060 | 70.6 | 38.5 | Cc1ccc(F)cc1-c1nc(NS(=O)(=O)c2cccc(N3CCC[C@@H](C(=O)O)C3)n2)ccc1C(F)(F)F [Example 357, (3R)-1-(6-{[6-(5-fluoro-2-methylphenyl)-5-(trifluoromethyl)pyridin-2-yl]sulfamoyl}pyridin-2-yl)piperidine-3-carboxylic Acid]
14 | 492 | 2600 | 78.5 | 11.7 | Cc1ccccc1-c1nc(NS(=O)(=O)c2cccc(N3C[C@H](O)[C@@H](N4CCCC4)C3)n2)ccc1C(F)(F)F [Example 118, 6-((3′S,4'S)-4′-hydroxy-[1,3′-bipyrrolidin]-1′-yl)-N-(6-(o-tolyl)-5-(trifluoromethyl)pyridin-2-yl)pyridine-2-sulfonamide]
15 | 612 | 1510 | 61.0 | 13.1 | Cc1ccc(F)cc1-c1nc(NS(=O)(=O)c2cccc(N)n2)ccc1Cl [Example 6, 6-amino-N-(5-chloro-6-(5-fluoro-2-methylphenyl)pyridin-2-yl)pyridine-2-sulfonamide]
16 | 544 | 1460 | 55.4 | 4.3 | CC1(C(=O)O)CCN(c2cccc(S(=O)(=O)Nc3ccc(C(F)(F)F)c(-c4ccccc4C4CC4)n3)n2)CC1 [Example 237, 1-(6-(N-(6-(2-cyclopropylphenyl)-5-(trifluoromethyl)pyridin-2-yl)sulfamoyl)pyridin-2-yl)-4-methylpiperidine-4-carboxylic Acid]
17 | 382 | 2320 | 45.4 | 15.7 | Cc1ccc(F)cc1-c1nc(NS(=O)(=O)c2cccc(N[C@@H]3COC[C@H]3O)n2)ccc1Cl [Example 127, N-(5-chloro-6-(5-fluoro-2-methylphenyl)pyridin-2-yl)-6-(((3R,4S)-4-hydroxytetrahydrofuran-3-yl)amino)pyridine-2-sulfonamide]
18 | 629 | 1150 | 97.56 | 3 | Cc1cccc(C)c1-c1cc(C(F)(F)F)cc(NS(=O)(=O)c2cccc(N)n2)n1 [Example 5, 6-amino-N-(6-(2,6-dimethylphenyl)-4-(trifluoromethyl)pyridin-2-yl)pyridine-2-sulfonamide]
19 | 879 | 1830 | 53.1 | 13.4 | Cc1cccc(C)c1-c1nc(NS(=O)(=O)c2cccc(N3CCC(C)(C(=O)O)CC3)n2)ccc1C(F)(F)F [Example 265, 1-(6-{[6-(2,6-dimethylphenyl)-5-(trifluoromethyl)pyridin-2-yl]sulfamoyl}pyridin-2-yl)-4-methylpiperidine-4-carboxylic Acid]
20 |  | 2080 | 91.9 | 31.6 | Cc1ccc(F)cc1-c1nc(NS(=O)(=O)c2cccc(N3CCN(C)CC3)n2)ccc1C(F)(F)F [Example 179, N-(6-(5-fluoro-2-methylphenyl)-5-(trifluoromethyl)pyridin-2-yl)-6-(4-methylpiperazin-1-yl)pyridine-2-sulfonamide]
21 | 289 | 1750 | 76.0 | 22.8 | COc1ccc(F)cc1-c1nc(NS(=O)(=O)c2cccc(N3CCN(C(C)(C)C)CC3)n2)ccc1C(F)(F)F [Example 149, 6-(4-(tert-butyl)piperazin-1-yl)-N-(6-(5-fluoro-2-methoxyphenyl)-5-(trifluoromethyl)pyridin-2-yl)pyridine-2-sulfonamide]
22 | 255 | 3220 | 54.3 | 30 | Cc1ccccc1-c1nc(NS(=O)(=O)c2cccc(O[C@@H]3COC[C@@H]3O)n2)ccc1C(F)(F)F (single isomer, unassigned) [Example 296]
23 | 837 | 1080 | 66.6 | 8.8 | Cc1cccc(C)c1-c1nc(NS(=O)(=O)c2cccc(NC3CCOCC3)n2)ccc1Cl [Example 271, N-[5-chloro-6-(2,6-dimethylphenyl)pyridin-2-yl]-6-[(oxan-4-yl)amino]pyridine-2-sulfonamide]
